According to the supplement of paper PMC10307832:

Columns and labels:
Assay in all cases: relative viability (nuclei count vs DMSO), 5 days (fraction); higher = more cells survive
Trametinib + Linsitinib = compound: CC(=O)Nc1cccc(-n2c(=O)n(C3CC3)c(=O)c3c(Nc4ccc(I)cc4F)n(C)c(=O)c(C)c32)c1 [Trametinib] + C[C@]1(O)C[C@@H](c2nc(-c3ccc4ccc(-c5ccccc5)nc4c3)c3c(N)nccn32)C1 [Linsitinib] (partner 1 µM)
In short: (§1)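 A single step with final 0.05% Triton X-100, 1% formaldehyde and 1 ug/ml Hoechst fixed the cells and stained nuclei 5 days after treatment. Lung cancer cell lines in 1536-well plates had been treated by pin tool the day after seeding with one drug alone or a fixed anchor-drug dose plus five library-drug doses (not always all listed) in √10 steps, and nuclei were counted on 4× images. Relative viability is the ratio of nuclei in treated wells to nuclei in vehicle wells, taken as the median of duplicate plates.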

[1] = compound: CN1C=C(C2=CC=CC=C21)/C=C\3/C4=C(C=CC=N4)NC3=O + CC(=O)Nc1cccc(-n2c(=O)n(C3CC3)c(=O)c3c(Nc4ccc(I)cc4F)n(C)c(=O)c(C)c32)c1 [Trametinib] (partner 0.02 µM)
In short: as §1

[2] = compound: CN1C=C(C2=CC=CC=C21)/C=C\3/C4=C(C=CC=N4)NC3=O + CS(=O)(=O)N1CCN(Cc2cc3nc(-c4cccc5[nH]ncc45)nc(N4CCOCC4)c3s2)CC1 [Pictilisib] (partner 1 µM)
In short: as §1

[3] = compound: CN1C=C(C2=CC=CC=C21)/C=C\3/C4=C(C=CC=N4)NC3=O + Nc1ncn([C@H]2C[C@H](O)[C@@H](CO)O2)c(=O)n1 [Decitabine] (partner 2 µM)
In short: as §1

Cell Line | relative viability (Trametinib + Linsitinib; first compound 0.0025 µM) | relative viability (Trametinib + Linsitinib; first compound 0.007906 µM) | relative viability (Trametinib + Linsitinib; first compound 0.025 µM) | relative viability (Trametinib + Linsitinib; first compound 0.07906 µM) | relative viability (Trametinib + Linsitinib; first compound 0.25 µM) | relative viability ([1]; first compound 0.02 µM) | relative viability ([1]; first compound 0.6325 µM) | relative viability ([1]; first compound 2 µM) | relative viability ([2]; first compound 0.02 µM) | relative viability ([2]; first compound 0.06325 µM) | relative viability ([2]; first compound 0.2 µM) | relative viability ([2]; first compound 0.6325 µM) | relative viability ([2]; first compound 2 µM) | relative viability ([3]; first compound 0.02 µM) | relative viability ([3]; first compound 0.6325 µM) | relative viability ([3]; first compound 2 µM) | relative viability ([1]; first compound 0.06325 µM) | relative viability ([1]; first compound 0.2 µM) | relative viability ([3]; first compound 0.06325 µM) | relative viability ([3]; first compound 0.2 µM)
EKVX | 0.875 | 0.757 | 0.767 | 0.632 | 0.282 | 0.268 | 0.233 | 0.201 | 0.374 | 0.384 | 0.334 | 0.345 | 0.361 | 0.291 | 0.303 | 0.301 |  |  |  | 
NCI-H596 | 1.04 | 0.851 | 0.769 | 0.774 | 0.76 | 0.741 | 0.744 | 0.867 | 0.333 | 0.322 | 0.421 | 0.392 | 0.396 | 1.03 | 1.88 | 1.81 | 0.781 | 0.755 | 1.06 | 0.958
NCI-H1975 | 0.93 | 0.897 | 0.603 | 0.384 | 0.38 | 0.32 | 0.326 | 0.271 | 0.297 | 0.255 | 0.251 | 0.246 | 0.246 | 0.396 | 0.363 | 0.347 | 0.237 | 0.323 | 0.277 | 0.356
NCI-H1666 | 0.56 | 0.524 | 0.426 | 0.571 | 0.388 | 0.987 | 0.857 | 0.925 | 0.552 | 0.322 | 0.318 | 0.272 | 0.26 | 0.7 | 0.764 | 0.658 | 0.832 | 0.901 | 0.701 | 0.591
PC-3 [JPC-3] | 0.98 | 0.854 | 0.854 | 0.797 | 0.624 | 0.824 | 0.718 | 0.717 | 0.703 | 0.691 | 0.665 | 0.778 | 0.758 | 0.863 | 0.786 | 0.812 | 0.657 | 0.667 | 0.777 | 0.863
NCI-H1755 | 0.847 | 0.82 | 0.764 | 0.847 | 0.801 | 0.782 | 0.737 | 0.696 | 0.405 | 0.342 | 0.302 | 0.365 | 0.37 | 0.668 | 0.675 | 0.691 | 0.83 | 0.76 | 0.758 | 0.674
RERF-LC-KJ | 0.862 | 0.792 | 0.751 | 0.791 | 0.793 | 0.887 | 0.804 | 0.822 | 0.748 | 0.524 | 0.55 | 0.445 | 0.497 | 0.736 | 0.666 | 0.687 | 0.835 | 0.771 | 0.633 | 0.708
NCI-H647 | 1.07 | 0.803 | 0.835 | 0.933 | 0.58 | 0.532 | 0.38 | 0.404 | 0.379 | 0.292 |  | 0.324 | 0.312 | 0.391 | 0.327 | 0.349 | 0.404 | 0.41 | 0.314 | 0.384
BEN | 0.81 | 0.762 |  | 0.687 | 0.882 | 1.05 | 0.966 | 1.18 | 0.541 | 0.596 | 0.504 | 0.478 | 0.532 | 0.691 | 0.623 | 0.781 | 0.981 | 1 | 0.634 | 0.513
201T | 1.01 | 1.02 | 0.863 | 0.959 | 0.778 | 0.758 | 0.797 | 0.763 | 0.64 | 0.649 | 0.629 | 0.626 | 0.613 | 0.857 | 0.885 | 0.917 | 0.727 | 0.754 | 0.891 | 0.859
LC-2-ad | 0.871 | 0.716 | 0.729 | 0.502 | 0.381 | 0.98 | 0.953 | 0.87 | 0.356 | 0.475 | 0.434 | 0.446 | 0.401 | 0.772 | 0.861 | 0.817 | 0.865 | 0.967 | 0.826 | 0.783
LCLC-97TM1 | 0.185 | 0.195 | 0.147 | 0.133 | 0.119 |  | 0.198 | 0.19 | 0.159 |  |  | 0.216 | 0.131 |  | 0.208 | 0.241 | 0.19 | 0.189 | 0.189 | 0.205
NCI-H1915 | 1.14 | 1.05 | 0.671 | 0.674 | 0.278 | 0.3 | 0.303 | 0.285 | 0.973 | 0.871 | 0.831 | 0.961 | 0.97 | 0.242 | 0.573 | 0.53 | 0.32 | 0.293 | 0.258 | 0.287
NCI-H3122 | 0.938 | 0.734 | 0.429 | 0.329 | 0.295 | 0.153 | 0.242 | 0.269 | 0.597 | 0.541 | 0.5 | 0.563 | 0.632 | 0.407 | 0.496 | 0.507 | 0.21 | 0.227 | 0.445 | 0.38
NCI-H1993 | 0.774 | 0.752 | 0.719 | 0.723 | 0.745 | 0.517 | 0.342 | 0.507 | 0.743 | 0.772 | 0.826 | 0.809 | 0.804 | 0.532 | 0.578 | 0.529 | 0.5 | 0.589 | 0.589 | 1.3
NCI-H2405 | 0.577 | 0.486 | 0.382 | 0.362 | 0.349 | 0.686 | 0.657 | 0.617 | 0.423 | 0.399 | 0.401 | 0.388 | 0.41 | 0.739 | 0.725 | 0.734 | 0.561 | 0.564 | 0.676 | 0.653
NCI-H661 | 0.537 | 0.499 | 0.567 | 0.392 | 0.403 | 0.615 | 0.533 | 0.589 | 0.399 | 0.418 | 0.325 | 0.339 | 0.375 | 0.594 | 0.564 | 0.555 | 0.65 | 0.56 | 0.562 | 0.496
